We go through one compound from patent publication US6562817B1, “Tricyclic compound” (Shionogi & Co., Ltd., priority 1998, dated 2003).

Series [1] concerns anti-OVA IgE production in BALB/c mice. The experiment in a line: Suppressive effect on the IgE production against ovalbumin (OVA): anti-OVA IgE antibody titer (PCA titer). Particulars: BALB/c mice immunized with OVA, 40 mg/kg orally for 10 days; titer = highest 2^n serum dilution positive in rat PCA. The class given is in vivo, mouse. As for the experimental part: Suppressive effect on the IgE Production Against ovalbumin (OVA)
BALB/c mice (female, 8-10 weeks old) and Wistar rats (female, 8-10 weeks old) which were bought from Japan SLC, Inc. (Shizuoka) were used.
BALB/c mice were immunized by an intraperitoneal administration of 0.2 ml suspension of 2 μg of ovalbumin (OVA) and 2 mg of aluminium hydroxide gel in physiological saline. After 10 days, blood was collected from hearts, then sera were separated and stocked at −40° C. till the measurement of IgE antibody titer.
After the compound of the present invention was dissolved or suspended in N,N-dimethylacetoamide, the mixture was diluted 20 times with miglyol 812 neutral oil. The obtained solution was orally administered to mice at 0.1 ml per mouse (dose 40 mg/kg). The administration was continued for 10 days from the immunizing day to the day before the blood collection.
The obtained mouse serum was 2-fold diluted with physiological saline, then each 50 μl of the solution was intradermally injected at dorsal skin of Wistar rats which previously hair cut. After 24 hours, a passive cutaneous anaphylaxis reaction (PCA) was induced by an intravenous injection of 0.5 ml of physiological saline containing 1 mg of OVA and 5 mg of Evans' blue dye. The rats were sacrified 30 minutes later and the highest dilution giving bluing with a diameter of 5 mm or more was recorded as the PCA titer. […]

As a reminder, the melting point is the temperature, or range, at which the solid turns liquid. In turn, `CC(C)=CCNc1ccc(-c2cc(C)c(-c3ccc(OCC=C(C)C)nc3)cc2C)c(F)c1` [Ib-250] had a melting point of 87 to 88 °C. Moreover, in series [1], the “PCA Titer” value is listed as 0.
